Test results: patent publication US10961215B2, “N-aryl and N-heteroaryl piperidine derivatives as liver X receptor beta agonists, compositions, and their use” (Merck Sharp & Dohme Corp., priority 2016, dated 2021)

What was measured:
[1] = target: T1, GST tagged LXRbeta LBD (ligand binding domain) (Homo sapiens, UniProt P55055); assay: LanthaScreen TR-FRET Liver X Receptor Coactivator Assay, LXR beta-LBD (co-activator recruitment; IP and % Emax relative to T0901317); assay type: biochemical; details: for EC50: Inflection Point of co-activator recruitment, LXR beta-LBD, TR-FRET; for Emax: read-out: LXR beta actiivty at max dose (%)
T1 construct: purchased Invitrogen pv4658.pps
T1 sequence (P55055 222-460 limits assumed): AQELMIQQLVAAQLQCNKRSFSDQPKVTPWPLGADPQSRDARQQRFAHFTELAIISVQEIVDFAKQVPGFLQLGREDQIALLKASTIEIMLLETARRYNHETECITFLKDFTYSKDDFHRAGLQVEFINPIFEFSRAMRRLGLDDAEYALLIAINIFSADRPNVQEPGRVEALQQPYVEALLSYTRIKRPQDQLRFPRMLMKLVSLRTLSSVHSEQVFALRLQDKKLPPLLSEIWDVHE
Protocol: (§1) Potency (Inflection Point, IP) and efficacy (Emax) are evaluated via compound-induced co-activator recruitment to glutathione-S-transferase (GST) tagged LXRbeta and LXRalpha LBD (ligand binding domain) proteins in relation to reference dual agonist compound T0901317 (N-(2,2,2-Trifluoroethyl)-N-[4-[2,2,2-trifluoro-1-hydroxy-1-(trifluoromethyl)ethyl]phenyl]benzenesulfonamide) using the LanthaScreen™ TR-FRET Liver X Receptor Coactivator Assays according to manufacturer's instructions (Invitrogen catalog number pv4658.pps and pv4655). While running the LanthaScreen™ TR-FRET Liver X Receptor Coactivator Assay, LXR alpha-LBD or LXR beta-LBD was added to ligand test compounds followed by addition of a mixture of a fluorescein-labelled coactivator peptide and terbium-conjugated anti-GST antibody. After an incubation period at room temperature, TR-FRET (time-resolved fluorescence resonance energy transfer) was measured using a filter-based instrument capable of TR-FRET, e.g. PerkinElmer Envision.

[2] = target: T2, GST tagged LXRalpha LBD (ligand binding domain) (Homo sapiens, UniProt Q13133); assay: LanthaScreen TR-FRET Liver X Receptor Coactivator Assay, LXR alpha-LBD (co-activator recruitment; IP and % Emax relative to T0901317); assay type: biochemical; details: for LXR alpha IP (nM) / EC50: Inflection Point of co-activator recruitment, LXR alpha-LBD, TR-FRET; for Emax: read-out: LXR alpha actiivty at max dose (%)
T2 construct: purchased Invitrogen pv4655
T2 sequence (Q13133 209-447 limits assumed): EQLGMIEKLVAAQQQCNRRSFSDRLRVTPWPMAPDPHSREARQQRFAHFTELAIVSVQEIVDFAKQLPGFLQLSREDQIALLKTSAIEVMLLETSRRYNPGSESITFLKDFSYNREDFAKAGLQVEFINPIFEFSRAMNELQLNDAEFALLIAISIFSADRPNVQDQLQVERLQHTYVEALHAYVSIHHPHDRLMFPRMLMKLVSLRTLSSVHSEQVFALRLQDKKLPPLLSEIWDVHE
Protocol: as §1

[3] = efficacy at max dose in relation to reference T0901317, LXR beta-LBD
[4] = efficacy at max dose in relation to reference T0901317, LXR alpha-LBD

EC50 [1] [nM]	Emax [1, 3] [%]	LXR alpha IP (nM) [2]	Emax [2, 4] [%]	LXR beta actiivty at max dose (%) [1, 3] [%]	LXR alpha actiivty at max dose (%) [2, 4] [%]	Compound	EC50 [2] [nM]
72	71	No IP	9	–	–	CN(C)C(=O)c1ccc(N2CCC(CCCN(C)C(=O)[C@]3(c4ccccc4)CCCO3)CC2)nc1Cl [Example 1-10, (R)-2-chloro-N,N-dimethyl-6-(4-(3-(N-methyl-2-phenyl-tetrahydrofuran-2-carboxamido)propyl)piperidin-1-yl)nicotinamide]	–
453	59	No IP	0	–	–	CN(C)C(=O)c1ccc(N2CCC(CCCN(C)C(=O)[C@@](O)(c3cc(F)cc(Cl)c3)C(F)(F)F)CC2)nc1Cl [Example 1-11, (S)-2-chloro-6-(4-(3-(2-(3-chloro-5-fluorophenyl)-3,3,3-trifluoro-2-hydroxy-N-methylpropanamido)propyl)piperidin-1-yl)-N,N-dimethylnicotinamide]	–
13	78	–	23	–	–	CN(C)C(=O)c1ccc(N2CCC(CCCN(C)C(=O)[C@](O)(c3cc(F)cc(Cl)c3)C(F)(F)F)CC2)nc1Cl [Example 1-12, (R)-2-chloro-6-(4-(3-(2-(3-chloro-5-fluorophenyl)-3,3,3-trifluoro-2-hydroxy-N-methylpropanamido)propyl)piperidin-1-yl)-N,N-dimethylnicotinamide]	372
148	63	No IP	0	–	–	COc1cccc([C@](O)(C(=O)N(C)CCCC2CCN(c3ccc(C(=O)N(C)C)c(Cl)n3)CC2)C(F)F)c1 [Example 1-13, (S)-2-chloro-6-(4-(3-(3,3-difluoro-2-hydroxy-2-(3-methoxyphenyl)-N-methylpropanamido)propyl)piperidin-1-yl)-N,N-dimethylnicotinamide]	–
366	19	No IP	0	–	–	CN(C)C(=O)c1ccc(N2CCC(CCCN(C)C(=O)C3(c4ccccc4)OCCO3)CC2)nc1Cl [Example 1-14, 2-chloro-N,N-dimethyl-6-(4-(3-(N-methyl-2-phenyl-1,3-dioxolane-2-carboxamido)propyl)piperidin-1-yl)nicotinamide]	–
76	55	No IP	0	–	–	Cc1cccc([C@@](O)(C(=O)N(C)CCCC2CCN(c3ccc(C(=O)N(C)C)c(Cl)n3)CC2)C(F)(F)F)c1 [Example 1-15, (R)-2-chloro-N,N-dimethyl-6-(4-(3-(3,3,3-trifluoro-2-hydroxy-N-methyl-2-m-tolylpropanamido)propyl)piperidin-1-yl)nicotinamide]	–
179	54	No IP	1	–	–	Cc1cccc([C@](O)(C(=O)N(C)CCCC2CCN(c3ccc(C(=O)N(C)C)c(Cl)n3)CC2)C(F)(F)F)c1 [Example 1-16, (S)-2-chloro-N,N-dimethyl-6-(4-(3-(3,3,3-trifluoro-2-hydroxy-N-methyl-2-m-tolylpropanamido)propyl)piperidin-1-yl)nicotinamide]	–
290	55	No IP	7	–	–	CN(C)C(=O)c1ccc(N2CCC(CCCN(C)C(=O)C3(c4ccccc4)CCOCC3)CC2)nc1Cl [Example 1-17, 2-chloro-N,N-dimethyl-6-(4-(3-(N-methyl-4-phenyl-tetrahydro-2H-pyran-4-carboxamido)propyl)piperidin-1-yl)nicotinamide]	–
564	41	No IP	13	–	–	CC(C)[C@@]1(C(=O)N(C)CCCC2CCN(c3ccc(C(=O)N(C)C)c(Cl)n3)CC2)CCCO1 [Example 1-18, (R)-2-chloro-6-(4-(3-(2-isopropyl-N-methyl-tetrahydrofuran-2-ycarboxamido)propyl)piperidin-1-yl)-N,N-dimethylnicotinamide]	–
1040	41	–	38	–	–	CC(C)[C@]1(C(=O)N(C)CCCC2CCN(c3ccc(C(=O)N(C)C)c(Cl)n3)CC2)CCCO1 [Example 1-19, (S)-2-chloro-6-(4-(3-(2-isopropyl-N-methyl-tetrahydrofuran-2-carboxamido)propyl)piperidin-1-yl)-N,N-dimethylnicotinamide]	17400
508	32	No IP	6	–	–	CN(C)C(=O)c1ccc(N2CCC(CCCN(C)C(=O)[C@](C)(O)c3ccccc3)CC2)nc1Cl [Example 1-20, (R)-2-chloro-6-(4-(3-(2-hydroxy-N-methyl-2-phenylpropanamido)propyl)piperidin-1-yl)-N,N-dimethylnicotinamide]	–
330	60	No IP	9	–	–	CN(C)C(=O)c1ccc(N2CCC(CCCN(C)C(=O)[C@@](C)(O)c3ccccc3)CC2)nc1Cl [Example 1-21, (S)-2-chloro-6-(4-(3-(2-hydroxy-N-methyl-2-phenylpropanamido)propyl)piperidin-1-yl)-N,N-dimethylnicotinamide]	–
–	–	No IP	–	51	6	CN(C)C(=O)c1ccc(N2CCC(CCCN(C)C(=O)[C@](O)(c3ccccc3)C(F)(F)F)CC2)nc1Cl [Example 1-26, (R)-2-chloro-N,N-dimethyl-6-(4-(3-(3,3,3-trifluoro-2-hydroxy-N-methyl-2-phenylpropanamido)propyl)piperidin-1-yl)nicotinamide]	–

Compound	EC50 [1] [nM]	Emax [1, 3] [%]	LXR alpha IP (nM) [2]	Emax [2, 4] [%]	LXR beta actiivty at max dose (%) [1, 3] [%]	LXR alpha actiivty at max dose (%) [2, 4] [%]	EC50 [2] [nM]
CN(C)C(=O)c1ccc(N2CCC(CCCN(C)C(=O)[C@](O)(c3ccccc3)C3CCC3)CC2)nc1Cl [Example 1-22, (R)-2-chloro-6-(4-(3-(2-cyclobutyl-2-hydroxy-N-methyl-2-phenylaceetamido)propyl)piperidin-1-yl)-N,N-dimethylnicotinamide]	64	94	No IP	9	–	–	–
CN(C)C(=O)c1ccc(N2CCC(CCCN(C)C(=O)[C@@](O)(c3ccccc3)C3CCC3)CC2)nc1Cl [Example 1-23, (S)-2-chloro-6-(4-(3-(2-cyclobutyl-2-hydroxy-N-methyl-2-phenylacetamido)propyl)piperidin-1-yl)-N,N-dimethylnicotinamide]	64	90	–	39	–	–	1760
CN(C)C(=O)c1ccc(N2CCC(CCCN(C)C(=O)[C@](O)(c3ccccc3)C3CC3)CC2)nc1Cl [Example 1-24, (R)-2-chloro-6-(4-(3-(2-cyclopropyl-2-hydroxy-N-methyl-2-phenylacetamido)propyl)piperidin-1-yl)-N,N-dimethylnicotinamide]	351	59	No IP	12	–	–	–
CN(C)C(=O)c1ccc(N2CCC(CCCN(C)C(=O)[C@@](O)(c3ccccc3)C3CC3)CC2)nc1Cl [Example 1-25, (S)-2-chloro-6-(4-(3-(2-cyclopropyl-2-hydroxy-N-methyl-2-phenylacetamido)propyl)piperidin-1-yl)-N,N-dimethylnicotinamide]	110	71	–	26	–	–	3360
